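Following 48 hours of exposure in 96-well plates, responses at five concentrations were used to interpolate endpoints linearly. GI50: concentration for 50% inhibition of growth. The concentration for full growth arrest is given as TGI.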
What was measured:
Experiment in all cases: DTP human tumour cell line panel, 48 h
[1] = system: HCT-116 colon
[2] = system: NCI/ADR-RES ovarian
[3] = system: OVCAR-5 ovarian
[4] = system: RPMI-8226 leukemia
[5] = system: SK-MEL-5 melanoma
[6] = system: SK-OV-3 ovarian
[7] = system: SNB-19 CNS
[8] = system: SW-620 colon
[9] = system: TK-10 renal
[10] = system: UO-31 renal

Row | Compound | GI50 [1] [µM] | TGI [1] [µM] | GI50 [2] [µM] | TGI [2] [µM] | GI50 [3] [µM] | TGI [3] [µM] | GI50 [4] [µM] | TGI [4] [µM] | GI50 [5] [µM] | TGI [5] [µM] | GI50 [6] [µM] | TGI [6] [µM] | GI50 [7] [µM] | TGI [7] [µM] | GI50 [8] [µM] | TGI [8] [µM] | GI50 [9] [µM] | TGI [9] [µM] | GI50 [10] [µM] | TGI [10] [µM]
1 | C=C(F)C(=O)N1CCN(c2nc(OC[C@@H]3CCCN3C)nc3c2CCN(c2cccc4cccc(Cl)c24)C3)C[C@@H]1CC#N | 0.562 | 1.88 | 0.601 | 3.19 | 0.485 | 2.56 | 1.24 | 3.45 | 1.63 | 3.06 | 2.17 | 4.94 | 1.19 | 5.32 | 0.992 | 2.52 | 1.1 | 2.67 | 1.13 | 2.57
2 | O=S(=O)(Nc1cc(F)cc(Cl)c1)c1ccc(-c2cnc(C3CC3)o2)cc1 | 0.719 | 16.4 | 1.08 | 15.5 | 4.43 | 21.5 | 2.74 | 40.6 | 1.83 | 11.7 | 4.84 | 25.9 | 1.46 | 16.7 | 0.599 | 15.5 | 6.29 | 29.6 | 2.96 | 17.6
3 | CCOc1nc(-c2ccccc2)cc2c(O)c(-c3nnco3)[nH]c(=O)c12 | 6.07 | > 100 | 3.4 | > 100 | > 82.3 | > 100 | 4.11 | > 100 | 2.16 | 8.18 | 10 | 75.9 | 6.13 | > 62.4 | 3.6 | > 100 | 4.59 | 35.2 | 2.11 | > 100
4 | Cn1cc(C2=C(c3ccc4ccccc4c3)C(=O)NC2=O)c2ccccc21 | 15.6 | > 25 | > 23.9 | > 25 | > 25 | > 25 | > 23.8 | > 25 | > 25 | > 25 | > 25 | > 25 | > 25 | > 25 | 8.28 | > 25 | > 25 | > 25 | > 12.4 | > 25
5 | C=C(C=O)C1CCC2(C(=O)O)CCC3(C)C(CCC4C5(C)CCC(O)C(C)(C)C5CCC43C)C12 (stereo not given) | 1.4 | 2.83 | 1.79 | 5.57 | 2.99 | 6.82 | 2.64 | > 100 | 1.52 | 2.84 | 7.37 | 19.6 | 8.18 | 20.8 | 1.99 | 5.07 | 4.04 | 18.1 | 0.627 | 2.16

— PubChem BioAssay (NCI)
